Assay results as given in patent publication US10648014B2, “Degradation resistant peptide based biosensors” (Purdue Research Foundation, priority 2014, dated 2020).
Square brackets hold non-standard residues; d marks the D form. Ends that are not written are not given here. * marks the point of attachment. Biotin = O=C1N[C@H]2[C@H](CS[C@H]2CCCCC(=O)*)N1; photo‑cleavable linker = not defined here

Columns and labels:
[1] = test system: Abl kinase; test: In vitro Abl kinase assay, phosphorylation detected by mass spectrometry; format: biochemical; details: for phosphorylation by Abl kinase: in vitro kinase assay, mass spectrometry, FIG. 2; for selectivity toward the Abl family of kinases: in vitro kinase assays Abl vs Lyn and Fyn
Method: (§1) In Vitro Abl Kinase Assay: The in vitro kinase assays were performed in triplicate in Dulbecco's Phosphate Buffered Saline without Calcium, Magnesium, or Phenol red in water bath maintained at 37° C. The total volume of the assay was 200 uL, and contained 1 mM ATP, 10 mM MgCl2, 5-25 uM of the biosensor, and 6 nM of Arg or Lyn Kinase final concentrations. Initiation of the assay was the addition of 1 uL of Arg Kinase to the reaction mix and heated at 37° C. Aliquots of 20 uL were collected at intervals described over a total run time of up to 60 minutes.
Referring now to FIG. 2, to evaluate the importance of the SH3 targeting sequence, we performed in vitro kinase assays comparing the peptides using the Abl kinase. Phosphorylation was detected using mass spectrometry.

[2] = test system: K562 chronic myelogenous leukemia (CML) cells; format: in vitro ADME, Human
Method: Biosensor Enrichment: K562 cells were incubated in lysis buffer for 20 minutes. Samples were spun down in 2500×g for 5 minutes at 4° C. Lysate was transferred to new Eppendorf tubes and treated with UV light (CL-1000 Ultraviolet Crosslinker (UVP, Upland, Calif., USA)) for 20 minutes to cleave the photo-cleavable linker. Photocleaved lysate samples were incubated with streptavidin coated agarose beads (Pierce) in 96 well polypropylene filter plate (PALL, Ann Arbor, Mich.) for 20 minutes at room temperature. Following incubation, the plate was spun down at 250×g for 30 seconds over a 96 well collection plate. The wells were washed 4 times with 200 uL of PBS and 2 times with MilliQ water, and spun down for 30 seconds at 250×g after each addition. Beads were resuspended in 15 μL of (75%/25%/0.1%:acetonitrile/water/TFA) elution buffer and shaken for 15 minutes at 600 rpm. Biosensor samples were spotted at 0.5 μL on a MALDI plate with 0.5 μL of matrix (10 mg/mL α-cyano-4-cinnamic acid and 10 mg/mL ammonium hydrogen phosphate, dissolved in 75%/25%/0.1% acetonitrile/water/TFA). Mass analysis was performed using an Applied Biosystems Voyager 4800 MALDI-TOF/TOF using linear positive mode.
Human K562 chronic myelogenous leukemia (CML) cells were exposed to either the control biosensor SEQ ID NO: 52 or the biosensor SEQ ID NO: 47 for 5 minutes as shown in FIGS. 8-13. […]

[3] = target: Lyn kinase (Homo sapiens, UniProt P07948); test: In vitro kinase assay against Lyn kinase; format: biochemical; details: FIG. 2
Method: as §1
(§2) In order to assess the selectivity of the biosensor SEQ ID NO: 47, we tested against Lyn and Fyn kinases using the in vitro kinase assay.

[4] = target: Fyn kinase (Homo sapiens, UniProt P06241); test: In vitro kinase assay against Fyn kinase; format: biochemical; details: FIG. 2
Method: as §1, §2

[5] = test system: K562 cells; format: cell-based, Human
Method: Flow Cytometry: K562 cells (about 1×10^6 cells/mL) were incubated for 30 minutes with FITC labeled biosensors at various concentrations, 1-50 μM. Cells were centrifuged at about 2500 rpm for about 5 minutes at 4° C. Media was aspirated and cells were washed 3 times with fresh media. A FC500 flow cytometer (Beckman Coulter) was used to analyze 50 μL aliquots of suspended cells.
Flow cytometry was used to verify the uptake of the biosensor SEQ ID NO:47 by K562 cells. We conjugated a FITC fluorophore to the cysteine residue of the biosensor by maleimide reaction.

[6] = target: T1, Bcr-Abl kinase (Homo sapiens, UniProt P00519); test: K562 cell kinase assay, intracellular phosphorylation of biosensor; format: cell-based; details: K562 cells, 60 minutes incubation, FIG. 6
T1 construct: endogenous in cells; host or cells: K562; the other entry of the earlier key: BCR (P11274, Breakpoint cluster region protein)

[7] = biosensor incubated with Abl kinase, Michaelis Menten, FIG. 3

Lyn kinase, sequence (P07948 whole entry): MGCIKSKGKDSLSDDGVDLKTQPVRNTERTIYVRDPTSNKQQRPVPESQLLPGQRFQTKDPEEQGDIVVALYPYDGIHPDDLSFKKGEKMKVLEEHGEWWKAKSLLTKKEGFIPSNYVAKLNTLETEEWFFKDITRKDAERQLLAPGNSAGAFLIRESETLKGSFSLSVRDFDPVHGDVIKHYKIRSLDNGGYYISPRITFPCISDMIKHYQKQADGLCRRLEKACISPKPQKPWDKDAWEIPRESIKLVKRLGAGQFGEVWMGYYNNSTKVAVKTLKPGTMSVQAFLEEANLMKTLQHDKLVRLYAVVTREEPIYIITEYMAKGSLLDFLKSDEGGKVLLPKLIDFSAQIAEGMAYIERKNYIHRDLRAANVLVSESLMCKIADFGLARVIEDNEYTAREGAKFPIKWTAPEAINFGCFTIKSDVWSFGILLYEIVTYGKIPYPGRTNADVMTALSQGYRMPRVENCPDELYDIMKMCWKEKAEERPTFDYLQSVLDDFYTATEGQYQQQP
Fyn kinase, sequence (P06241 whole entry): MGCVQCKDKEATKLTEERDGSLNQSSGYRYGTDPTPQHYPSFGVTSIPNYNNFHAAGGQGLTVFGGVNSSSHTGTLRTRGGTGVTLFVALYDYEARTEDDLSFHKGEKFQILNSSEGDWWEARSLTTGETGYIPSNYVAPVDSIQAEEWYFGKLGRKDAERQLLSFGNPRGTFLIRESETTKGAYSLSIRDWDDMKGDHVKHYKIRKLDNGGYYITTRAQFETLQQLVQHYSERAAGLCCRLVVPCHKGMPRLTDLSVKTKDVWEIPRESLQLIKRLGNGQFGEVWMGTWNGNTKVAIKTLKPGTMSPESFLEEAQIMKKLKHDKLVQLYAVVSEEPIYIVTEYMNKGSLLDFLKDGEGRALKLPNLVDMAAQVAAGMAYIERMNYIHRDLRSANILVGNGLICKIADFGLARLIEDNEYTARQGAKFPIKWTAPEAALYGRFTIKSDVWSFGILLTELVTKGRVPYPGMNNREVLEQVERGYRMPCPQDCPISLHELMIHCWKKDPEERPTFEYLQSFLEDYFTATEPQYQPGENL
T1 sequence (P00519 with tags, fused parts or gaps): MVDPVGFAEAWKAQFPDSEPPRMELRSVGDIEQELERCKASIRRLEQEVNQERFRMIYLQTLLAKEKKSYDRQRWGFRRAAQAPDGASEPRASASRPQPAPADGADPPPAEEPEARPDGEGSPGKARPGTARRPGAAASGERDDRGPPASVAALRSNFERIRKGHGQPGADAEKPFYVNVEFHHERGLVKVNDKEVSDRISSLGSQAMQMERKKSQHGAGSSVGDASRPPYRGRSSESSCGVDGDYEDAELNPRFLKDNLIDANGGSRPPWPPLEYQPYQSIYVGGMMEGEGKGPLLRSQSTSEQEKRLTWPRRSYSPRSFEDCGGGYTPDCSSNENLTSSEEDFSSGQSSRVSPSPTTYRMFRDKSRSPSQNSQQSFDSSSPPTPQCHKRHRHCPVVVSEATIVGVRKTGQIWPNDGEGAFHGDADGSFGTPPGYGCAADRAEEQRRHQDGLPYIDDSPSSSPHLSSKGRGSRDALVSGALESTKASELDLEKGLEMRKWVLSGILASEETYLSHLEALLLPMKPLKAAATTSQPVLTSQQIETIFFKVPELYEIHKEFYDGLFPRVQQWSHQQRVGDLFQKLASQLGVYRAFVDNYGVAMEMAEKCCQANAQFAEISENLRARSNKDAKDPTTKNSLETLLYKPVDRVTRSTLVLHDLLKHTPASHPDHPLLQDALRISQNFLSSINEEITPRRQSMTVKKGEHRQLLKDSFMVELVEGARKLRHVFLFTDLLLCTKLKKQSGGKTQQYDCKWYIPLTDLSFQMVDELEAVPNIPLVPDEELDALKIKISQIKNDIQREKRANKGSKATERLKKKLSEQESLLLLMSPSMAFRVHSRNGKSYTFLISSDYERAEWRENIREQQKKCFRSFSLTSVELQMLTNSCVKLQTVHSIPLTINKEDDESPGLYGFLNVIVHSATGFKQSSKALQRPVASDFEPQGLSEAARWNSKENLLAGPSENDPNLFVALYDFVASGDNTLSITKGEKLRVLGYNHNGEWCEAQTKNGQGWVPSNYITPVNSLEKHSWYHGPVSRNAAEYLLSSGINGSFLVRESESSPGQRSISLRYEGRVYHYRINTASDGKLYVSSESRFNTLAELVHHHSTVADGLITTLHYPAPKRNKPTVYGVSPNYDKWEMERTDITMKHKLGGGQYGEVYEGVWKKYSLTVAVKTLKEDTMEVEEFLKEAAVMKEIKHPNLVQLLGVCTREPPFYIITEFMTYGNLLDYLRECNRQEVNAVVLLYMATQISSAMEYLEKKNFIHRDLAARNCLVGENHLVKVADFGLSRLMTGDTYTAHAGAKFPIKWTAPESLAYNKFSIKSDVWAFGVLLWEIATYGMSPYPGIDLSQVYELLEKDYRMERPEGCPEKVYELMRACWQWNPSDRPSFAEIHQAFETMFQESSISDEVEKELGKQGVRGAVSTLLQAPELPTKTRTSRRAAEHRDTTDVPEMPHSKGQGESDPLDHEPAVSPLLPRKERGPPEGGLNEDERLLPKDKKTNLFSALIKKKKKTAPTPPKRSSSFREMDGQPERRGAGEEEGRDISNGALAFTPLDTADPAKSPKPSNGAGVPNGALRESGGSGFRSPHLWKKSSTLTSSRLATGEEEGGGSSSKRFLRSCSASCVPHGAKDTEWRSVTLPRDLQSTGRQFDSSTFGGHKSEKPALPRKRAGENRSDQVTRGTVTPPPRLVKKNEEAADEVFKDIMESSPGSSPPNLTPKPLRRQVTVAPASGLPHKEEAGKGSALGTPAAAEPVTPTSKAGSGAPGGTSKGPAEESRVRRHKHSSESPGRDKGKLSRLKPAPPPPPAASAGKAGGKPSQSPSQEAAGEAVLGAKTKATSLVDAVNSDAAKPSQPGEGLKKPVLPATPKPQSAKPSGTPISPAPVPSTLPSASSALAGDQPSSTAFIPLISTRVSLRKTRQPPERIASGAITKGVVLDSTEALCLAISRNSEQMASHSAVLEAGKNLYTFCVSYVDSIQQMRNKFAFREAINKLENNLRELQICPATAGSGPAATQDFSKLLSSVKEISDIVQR

KbiotinkkafpaayiaeG-photo-cleavable linker-GCGGrrrqrrkkr (K(Biotin)[dK][dK][dA][dF][dP][dA][dA][dY][dI][dA][dE]G[photo‑cleavable linker]GCGG[dR][dR][dR][dQ][dR][dR][dK][dK][dR]; reading uncertain) [SEQ ID NO: 53]
phosphorylation by Abl kinase [1]: not appreciably phosphorylated | selectivity toward the Abl family of kinases [1]: relatively selective toward the Abl family of kinases

EAIYAAFAKKG-Kbiotin-photo-cleavable linker-GCGAPTYSPPPPPGGRKKRRQRRR (EAIYAAFAKKGK(Biotin)[photo‑cleavable linker]GCGAPTYSPPPPPGGRKKRRQRRR; reading uncertain) [SEQ ID NO: 52, reference compound]
degradation after exposure to K562 cells [2]: almost completely degraded

KbiotinkkafpaayiaeG-photo-cleavable linker-GCGAPTYSPPPPPGGrrrqrrkkr (K(Biotin)[dK][dK][dA][dF][dP][dA][dA][dY][dI][dA][dE]G[photo‑cleavable linker]GCGAPTYSPPPPPGG[dR][dR][dR][dQ][dR][dR][dK][dK][dR]; reading uncertain) [SEQ ID NO:47]
phosphorylation by Lyn kinase [3]: did not phosphorylate | selectivity for Abl over Lyn or Fyn kinases [4]: selective for Abl over Lyn or Fyn kinases | degradation after exposure to K562 cells [2]: essentially intact | Km [1, 7]: 7.5 µM | Vmax [1, 7]: 849.5 pmol/mg/min | phosphorylation by Abl kinase [1]: phosphorylated with reasonable efficiency | selectivity toward the Abl family of kinases [1]: relatively selective toward the Abl family of kinases | uptake by K562 cells [5]: confirmed the uptake | intracellular phosphorylation of the biosensor [6]: observed
